In patent US9115127B2 (AMGEN INC., priority 2010, dated 2015):

The compounds below were run against T1, wild-type human ALK (cytoplasmic domain, amino acids 1058-1620, N-terminal GST fusion) (Homo sapiens, UniProt Q9UM73) (assay: ALK Inhibition in Enzyme Assay (Lance TR-FRET kinase assay)). Settings: not given.
T1 construct: The cytoplasmic domain (amino acids 1058-1620) of wild-type human ALK; GST (N); made in house; host or cells: SF9 insect cells
T1 sequence (Q9UM73 1058-1620): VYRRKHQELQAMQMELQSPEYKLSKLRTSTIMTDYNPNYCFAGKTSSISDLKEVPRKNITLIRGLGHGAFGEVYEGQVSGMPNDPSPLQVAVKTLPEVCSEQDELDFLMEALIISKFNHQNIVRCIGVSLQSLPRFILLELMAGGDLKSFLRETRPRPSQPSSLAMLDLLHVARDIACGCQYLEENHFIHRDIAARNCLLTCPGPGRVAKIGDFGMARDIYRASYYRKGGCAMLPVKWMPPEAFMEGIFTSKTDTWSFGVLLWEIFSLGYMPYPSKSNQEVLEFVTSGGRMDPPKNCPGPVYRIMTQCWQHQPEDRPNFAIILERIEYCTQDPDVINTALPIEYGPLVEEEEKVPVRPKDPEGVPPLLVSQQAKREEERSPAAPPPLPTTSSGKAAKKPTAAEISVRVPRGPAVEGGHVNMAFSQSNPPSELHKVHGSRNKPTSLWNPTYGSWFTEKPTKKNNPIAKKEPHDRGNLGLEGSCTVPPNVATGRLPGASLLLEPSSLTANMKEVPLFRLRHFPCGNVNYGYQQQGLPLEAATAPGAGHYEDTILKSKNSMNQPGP
Assay type: biochemical
In short: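 TR-FRET read-out (Eu-W1024 PT66 anti-phosphotyrosine plus streptavidin-allophycocyanin, 320 nm excitation) quantified biotinylated peptide phosphorylation by the purified kinase. Reaction ran 90 minutes at room temperature before quenching with 20 mM EDTA in Tris pH 7.5 buffer with NaCl, BSA and Tween-20.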
With N#C[C@]1(c2ccccn2)C[C@@H](n2/c(=N/C(=O)c3ccc(F)cc3)[nH]c3cnc(OCCN4CCCCC4)cc32)C1 [Example 240, (E)-N-(1-(trans-3-Cyano-3-(pyridin-2-yl)cyclobutyl)-6-(2-(piperidin-1-yl)ethoxy)-1H-imidazo[4,5-c]pyridin-2(3H)-ylidene)-4-fluorobenzamide] the IC50 was 1000 to 5000 nM.
Compound N#C[C@]1(c2ccccn2)C[C@H](n2/c(=N/C(=O)c3ccc(F)cc3)[nH]c3cnc(OCCN4CCCCC4)cc32)C1 [Example 241, (E)-N-(1-(cis-3-Cyano-3-(pyridin-2-yl)cyclobutyl)-6-(2-(piperidin-1-yl)ethoxy)-1H-imidazo[4,5-c]pyridin-2(3H)-ylidene)-4-fluorobenzamide] has an IC50 of 100 to 1000 nM.
In the case of CC(C)(O)C1CCN(Cc2ccc3[nH]/c(=N\C(=O)c4ccc(F)cc4)n([C@H]4CC[C@]5(CC4)NC(=O)NC5=O)c3c2)CC1 [Example 242, (E)-N-(1-((5S,8S)-2,4-Dioxo-1,3-diazaspiro[4.5]decan-8-yl)-6-((4-(2-hydroxypropan-2-yl)piperidin-1-yl)methyl)-1H-benzo[d]imidazol-2(3H)-ylidene)-4-fluorobenzamide], the IC50 is reported as 100 to 1000 nM.
For CC(C)(O)C1CCN(Cc2ccc3[nH]/c(=N\C(=O)c4ccc(F)cc4)n([C@H]4CC[C@@H](C(=O)NC5CNC5)CC4)c3c2)CC1 [Example 243], the IC50 was under 50 nM.
Work on C=CCNS(=O)(=O)c1cccc(C(=O)/N=c2\[nH]c3cnc(OCCN4CCCCC4)cc3n2[C@H]2CC[C@H](C(N)=O)CC2)c1 [Example 244, (E)-3-(N-Allylsulfamoyl)-N-(1-(trans-4-carbamoylcyclohexyl)-6-(2-(piperidin-1-yl)ethoxy)-1H-imidazo[4,5-c]pyridin-2(3H)-ylidene)benzamide] yielded an IC50 of 50 to 100 nM.
For CNC(=O)[C@H]1CC[C@H](n2/c(=N/C(=O)c3ccc(F)cc3)[nH]c3cnc(OCCN4CCCCC4)cc32)CC1 [Example 246, (E)-4-Fluoro-N-(1-(trans-4-(methylcarbamoyl)cyclohexyl)-6-(2-(piperidin-1-yl)ethoxy)-1H-imidazo[4,5-c]pyridin-2(3H)-ylidene)benzamide], the IC50 was 100 to 1000 nM.
Work on NC(=O)[C@H]1CC[C@H](n2/c(=N/C(=O)c3cc(F)cc(F)c3)[nH]c3cnc(OCCN4CCCCC4)cc32)CC1 [Example 247, (E)-N-(1-(trans-4-Carbamoylcyclohexyl)-6-(2-(piperidin-1-yl)ethoxy)-1H-imidazo[4,5-c]pyridin-2(3H)-ylidene)-3,5-difluorobenzamide] yielded an IC50 of 1000 to 5000 nM.
In the case of NC(=O)[C@H]1CC[C@H](n2/c(=N/C(=O)c3ccc(F)cc3)[nH]c3cnc(OCCN4CCCCC4)cc32)CC1 [Example 248, (E)-N-(1-(trans-4-Carbamoylcyclohexyl)-6-(2-(piperidin-1-yl)ethoxy)-1H-imidazo[4,5-c]pyridin-2(3H)-ylidene)-4-fluorobenzamide], the IC50 is reported as 1000 to 5000 nM.
With CNC(=O)[C@H]1CC[C@H](n2/c(=N/C(=O)c3cc(F)cc(F)c3)[nH]c3cnc(OCCN4CCCCC4)cc32)CC1 [Example 249, (E)-3,5-Difluoro-N-(1-(trans-4-(methylcarbamoyl)cyclohexyl)-6-(2-(piperidin-1-yl)ethoxy)-1H-imidazo[4,5-c]pyridin-2(3H)-ylidene)benzamide] the IC50 was 1000 to 5000 nM.
With N#C[C@]1(c2cccc(Br)c2)C[C@@H](n2/c(=N/C(=O)c3ccc(F)cc3)[nH]c3cnc(OCCN4CCCCC4)cc32)C1 [Example 250, (E)-N-(1-(trans-3-(3-Bromophenyl)-3-cyanocyclobutyl)-6-(2-(piperidin-1-yl)ethoxy)-1H-imidazo[4,5-c]pyridin-2(3H)-ylidene)-4-fluorobenzamide] the IC50 was 100 to 1000 nM.
For NC(=O)[C@]1(c2cccc(Br)c2)C[C@@H](n2/c(=N/C(=O)c3ccc(F)cc3)[nH]c3cnc(OCCN4CCCCC4)cc32)C1 [Example 251, (E)-N-(1-(trans-3-(3-Bromophenyl)-3-carbamoylcyclobutyl)-6-(2-(piperidin-1-yl)ethoxy)-1H-imidazo[4,5-c]pyridin-2(3H)-ylidene)-4-fluorobenzamide], the IC50 was 50 to 100 nM.
NC(=O)[C@]1(c2cccc(Br)c2)C[C@H](n2/c(=N/C(=O)c3ccc(F)cc3)[nH]c3cnc(OCCN4CCCCC4)cc32)C1 [Example 252, (E)-N-(1-(cis-3-(3-Bromophenyl)-3-carbamoylcyclobutyl)-6-(2-(piperidin-1-yl)ethoxy)-1H-imidazo[4,5-c]pyridin-2(3H)-ylidene)-4-fluorobenzamide] gave an IC50 of 1000 to 5000 nM.

Same assay, conditions: 2 nM enzyme, ATP 40 μM (Km apparent), 90 minutes at room temperature; mean of three replicates
Compound C=CCNS(=O)(=O)c1cccc(C(=O)/N=c2\[nH]c3cnc(OCCN4CCCCC4)cc3n2C2CCC(C(=O)NC)CC2)c1 [Example 245, (E)-3-(N-Allylsulfamoyl)-N-(1-((1R,4R)-4-(methylcarbamoyl)cyclohexyl)-6-(2-(piperidin-1-yl)ethoxy)-1H-imidazo[4,5-c]pyridin-2(3H)-ylidene)benzamide] has an IC50 of 50 to 100 nM.
